Assay results taken from the Kinase Knowledgebase extract (Sharma et al. 2016).

Target: CDK2 (human) (UniProt P24941)
Experiment: Enzyme Assay

SMILES	IC50 [µM]
CC(C)c1cnn2c(NCc3ccccc3-c3cccs3)nc([S+]([O-])C3CCNCC3)nc12 (stereo unspecified)	0.05 to 0.5
CNC(=O)c1ccccc1CNc1nc(O[C@@H]2CCCNC2)nc2c(C(C)C)cnn12	0.05 to 0.5
CC(C)c1cnn2c(NCc3ccccc3C(F)(F)F)nc(OC3CCN(C)CC3)nc12	≤ 0.05
CC(C)c1cnn2c(NCc3ccccc3S(=O)(=O)N3CCCC3)nc(O[C@@H]3CCCNC3)nc12	0.05 to 0.5
CC(C)c1cnn2c(NCc3ccccc3Cl)nc(OC3CCN(C)CC3)nc12	0.05 to 0.5
CC(C)c1cnn2c(NCc3cc(F)ccc3-n3cccn3)nc(O[C@@H]3CCCNC3)nc12	≤ 0.05
CC(C)c1cnn2c(NCc3cccc4c3cnn4C)nc(O[C@@H]3CCCNC3)nc12	≤ 0.05
CC(C)c1cnn2c(NCc3ccccc3-n3cccn3)nc(S[C@@H]3CCCNC3)nc12	0.05 to 0.5
CNC1CCN(c2nc(NCc3ccccc3-n3cccn3)n3ncc(C(C)C)c3n2)CC1	0.05 to 0.5
CC(C)c1cnn2c(NCc3ccccc3-n3cncn3)nc(N[C@@H]3CCCNC3)nc12	≤ 0.05
CC(C)c1cnn2c(NCc3ccccc3OS(=O)C(C)(C)C)nc(O[C@@H]3CCCNC3)nc12 (stereo partly specified)	0.05 to 0.5
CC(C)c1cnn2c(NCc3ccccc3C(N)=O)nc(O[C@@H]3CCCNC3)nc12	0.05 to 0.5
CC(C)c1cnn2c(NCc3ccccc3-n3cccn3)nc(NC3CCCNC3)nc12 (stereo unspecified)	0.05 to 0.5
CC(C)c1cnn2c(NCc3c(F)cccc3-n3cccn3)nc(O[C@@H]3CCCNC3)nc12	0.05 to 0.5
CC(C)c1cnn2c(NCc3cccc4[nH]ncc34)nc(O[C@@H]3CCCNC3)nc12	≤ 0.05
CC(C)c1cnn2c(NCc3ccccc3-n3cccn3)nc(OC3C=CCNC3)nc12 (stereo unspecified)	0.05 to 0.5
CC(C)c1cnn2c(NCc3cccc(Cl)c3Cl)nc(O[C@@H]3CCCNC3)nc12	0.05 to 0.5
COc1ccccc1CNc1nc(OC2CCN(C)CC2)nc2c(C(C)C)cnn12	0.05 to 0.5
CC(C)c1cnn2c(NCc3ccccc3-c3cccs3)nc(OC3CCNCC3)nc12	0.05 to 0.5

SMILES	IC50 [µM]
CC(C)c1cnn2c(NCc3ccccc3S(=O)(=O)N3CCN(C)CC3)nc(O[C@@H]3CCCNC3)nc12	0.05 to 0.5
CC(C)c1cnn2c(NCc3cccc4cc[n+]([O-])cc34)nc(O[C@@H]3CCCNC3)nc12	0.05 to 0.5
CNS(=O)(=O)c1ccccc1CNc1nc(O[C@@H]2CCCNC2)nc2c(C(C)C)cnn12	0.05 to 0.5
CC(C)c1cnn2c(NCc3ccccc3-n3cccn3)nc([S+]([O-])C3CCNCC3)nc12 (stereo unspecified)	0.05 to 0.5
CC(C)c1cnn2c(NCc3ccccc3-n3cccn3)nc(N3CCC(N(C)C)CC3)nc12	0.05 to 0.5
CC(C)c1cnn2c(NCc3cccc4c3OCCCO4)nc(O[C@@H]3CCCNC3)nc12	0.05 to 0.5
CC(C)c1cnn2c(NCc3ccccc3-c3cccs3)nc(O[C@@H]3CCCNC3)nc12	≤ 0.05
CC(C)c1cnn2c(NCc3ccccc3-n3cncn3)nc(OC3CCN(C)CC3)nc12	0.05 to 0.5
CC(C)c1cnn2c(NCc3ccccc3-n3cccn3)nc(OC3C[C@H]4CNC[C@@H]34)nc12 (stereo partly specified)	0.05 to 0.5
CC(C)c1cnn2c(NCc3ccccc3OS(C)(=O)=O)nc(O[C@@H]3CCCNC3)nc12	0.05 to 0.5
CC(C)Oc1ccccc1CNc1nc(O[C@@H]2CCCNC2)nc2c(C(C)C)cnn12	0.05 to 0.5
CC(C)c1cnn2c(NCc3ccccc3-c3nnn(C)n3)nc(O[C@@H]3CCCNC3)nc12	≤ 0.05
CC(C)c1cnn2c(NCc3ccccc3-n3cncn3)nc([S+]([O-])C3CCNCC3)nc12 (stereo unspecified)	0.05 to 0.5
CC(C)c1cnn2c(NCc3ccccc3OC(F)F)nc(OC3CCN(C)CC3)nc12	0.05 to 0.5
CC(C)c1cnn2c(NCc3ccccc3-c3cccs3)nc(OC3CCN(C)CC3)nc12	0.05 to 0.5
CC(C)c1cnn2c(NCc3ccccc3S(C)(=O)=O)nc(O[C@@H]3CCCNC3)nc12	0.05 to 0.5
CC(C)c1cnn2c(NCc3ccccc3-n3cccn3)nc(NC3CCNC3)nc12 (stereo unspecified)	0.05 to 0.5
CC(C)c1cnn2c(NCc3ccccc3-c3nnnn3C)nc(O[C@@H]3CCCNC3)nc12	0.05 to 0.5
CC(C)c1cnn2c(NCc3ccccc3S(=O)(=O)N(C)C)nc(O[C@@H]3CCCNC3)nc12	0.05 to 0.5

Results, then the compound that gave them:

IC50 [µM]	SMILES
0.05 to 0.5	CC(C)c1cnn2c(NCc3ccccc3-n3cc(Cl)cn3)nc(O[C@@H]3CCCNC3)nc12
0.05 to 0.5	CC(C)c1cnn2c(NCc3ccccc3-n3ccnc3)nc(O[C@@H]3CCCNC3)nc12
≤ 0.05	CC(C)c1cnn2c(NCc3ccc(F)cc3-n3cccn3)nc(O[C@@H]3CCCNC3)nc12
0.05 to 0.5	CC(C)c1cnn2c(NCc3ccccc3-c3ccccn3)nc(O[C@@H]3CCCNC3)nc12
0.05 to 0.5	CC(C)c1cnn2c(NCc3ccccc3-n3cccn3)nc(OC3CCNCC3)nc12
0.05 to 0.5	CC(C)c1cnn2c(NCc3ccccc3-n3cncn3)nc(OC3CCNCC3)nc12
0.05 to 0.5	CC(C)c1cnn2c(NCc3cccc4ccncc34)nc(O[C@@H]3CCCNC3)nc12
0.05 to 0.5	CSc1ccccc1CNc1nc(O[C@@H]2CCCNC2)nc2c(C(C)C)cnn12
0.05 to 0.5	CC(C)c1cnn2c(NCc3ccccc3N3CCCC3=O)nc(O[C@@H]3CCCNC3)nc12
0.05 to 0.5	CC(C)c1cnn2c(NCc3cccc4cccnc34)nc(O[C@@H]3CCCNC3)nc12
≤ 0.05	CC(C)c1cnn2c(NCc3cccc(F)c3-n3cccn3)nc(O[C@@H]3CCCNC3)nc12
0.05 to 0.5	CC(C)c1cnn2c(NCc3ccccc3-n3ccnc3)nc(O[C@@H]3CCNC3)nc12
≤ 0.05	CC(C)c1cnn2c(NCc3ccccc3-n3cncn3)nc(O[C@@H]3CCNC3)nc12
0.05 to 0.5	CC(C)c1cnn2c(NCc3ccccc3Br)nc(O[C@@H]3CCCNC3)nc12
0.05 to 0.5	CC(C)c1cnn2c(NCc3ccccc3[S+](C)[O-])nc(O[C@@H]3CCCNC3)nc12 (stereo partly specified)
0.05 to 0.5	CC(C)c1cnn2c(NCc3ccccc3-c3cccs3)nc(O[C@@H]3CCNC3)nc12
≤ 0.05	CC(C)c1cnn2c(NCc3ccccc3-n3cccn3)nc(O[C@@H]3CCCNC3)nc12
≤ 0.05	CC(C)c1cnn2c(NCc3ccccc3-n3cccn3)nc(O[C@@H]3CCNC3)nc12
